In patent US5089623A, “Certain imidate insecticides” (Imperial Chemical Industries Plc, priority 1990, dated 1992):

Assays:
Assay type in all cases: in vivo
[1] = tested on: Aster Leafhopper [Macrosteles fascifrens (Stal)]; assay: Aster leafhopper test (LH); conditions: adults/nymphs, 48 hours, percent in solution
[2] = tested on: Tobacco Budworm [Heliothis virescens (Fabricius)]; assay: Tobacco budworm contact test (TBW-C); conditions: second-instar larvae, 5 days, percent in solution
Experimental: The compounds in Tables 1 and 2 above were tested for insecticidal activity using the following testing procedures. LC50 values, based on the results of these tests and calculated according to dosage-mortality curves, are expressed in Table 3.
Tobacco Budworm [Heliothis virescens (Fabricius)]
(a) Contact: Test compounds were diluted in a 50-50 acetonewater solution. Cotton (Gossypium sp.) cotyledons were immersed in the test solutions for 2-3 seconds and placed on a wire screen to dry. The dried leaves were placed in petri dishes containing a moistened piece of filter paper and infested with 5 second-instar tobacco budworm larvae. The dishes were placed in a high humidity chamber for 5 days, and percent mortality of the larvae recorded. Test concentrations ranged from 0.1% downward. The LC-50 values are expressed below in Table 3 under the heading "TBW-C" in terms of percent of the test compound in the solution.

[3] = tested on: Tobacco Budworm [Heliothis virescens (Fabricius)] eggs; assay: Tobacco budworm egg test (TBW-E); conditions: percent in solution
[4] = tested on: Cabbage Looper [Trichoplusia ni (Hubner)]; assay: Cabbage looper test (CL); conditions: second-instar larvae, 3-5 days, percent in solution
[5] = tested on: Maize weevil [Sitophilus Zeamais (Motschulsky)]; assay: Maize weevil test (MW); conditions: adult weevils, treated corn seeds, 48 hours, percent in solution
Summary of the method: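 Adult weevils (10) were placed with four corn seeds that had been dipped 2-3 s in compound dissolved in 50:50 acetone:water, then dried, and held at about 25° C. Mortality was scored at 48 h. LC50 was taken from dosage-mortality curves and expressed as percent compound in solution, from a 0.01% top concentration.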

[6] = tested on: Housefly [Musca domestica]; assay: Housefly insecticidal test (HF); conditions: per 25 female houseflies, 48 hours

SMILES | LC50 LH [1] | LC50 TBW C [2] | LC50 TBW E [3] | LC50 CL [4] | LC50 MW [5] | LC50 HF [6]
CC(C)(C)C(=Nc1ccc(Cl)cc1)OCc1cccc(Oc2ccccc2)c1 [Compound 30] | > 0.05% | 0.01% | > 0.1% | 0.003% | > 0.01% | > 100 µg
CC(C)C(=Nc1ccc(Cl)c(Cl)c1)OCc1cccc(Oc2ccc(F)cc2)c1 [Compound 37] | 0.002% | 0.0005% | 0.014% | 0.0004% | 0.009% | 21 µg
ClC(Cl)C(=Nc1ccccc1)OCc1cccc(Oc2ccccc2)c1 [Compound 41] | – | 0.0035% | 0.04% | 0.015% | – | 4.5 µg
Fc1ccc(N=C(OCc2cccc(Oc3ccccc3)c2)C(Cl)Cl)cc1 [Compound 44] | – | < 0.1% | 0.06% | – | – | 3 µg
CC(C)C(=Nc1c(F)c(F)c(F)c(F)c1F)OCc1cccc(Oc2ccccc2)c1 [Compound 51] | 0.001% | 0.0025% | 0.067% | 0.001% | – | 25 µg
CC(C)C(=Nc1ccc(F)c(F)c1)OCc1cccc(Oc2ccc(F)cc2)c1 [Compound 60] | 0.002% | 0.0009% | 0.017% | 0.001% | 0.0075% | 8 µg
Cc1c(F)cccc1N=C(OCc1cccc(Oc2ccccc2)c1)C(C)C [Compound 73] | – | 0.005% | 0.025% | 0.004% | – | 25 µg
Cc1ccc(F)cc1N=C(OCc1cccc(Oc2ccccc2)c1)C(C)C [Compound 74] | – | 0.0025% | 0.025% | 0.005% | – | 25 µg
Cc1ccc(N=C(OCc2cccc(Oc3ccccc3)c2)C(C)C)cc1F [Compound 75] | 0.0008% | 0.0075% | 0.01% | 0.0025% | – | 5 µg
COc1ccc(N=C(OCc2cccc(Oc3ccccc3)c2)C(C)C)cc1Cl [Compound 95] | – | 0.004% | 0.025% | 0.0025% | – | 10 µg
Cc1cc(Cl)ccc1N=C(OCc1cccc(Oc2ccccc2)c1)C(C)C [Compound 96] | – | 0.0025% | 0.025% | 0.003% | – | 35 µg
CC(C)C(=Nc1ccc(F)c(C(F)(F)F)c1)OCc1cccc(Oc2ccc(F)cc2)c1 [Compound 120] | 0.0003% | 0.0025% | 0.04% | 0.00015% | > 0.01% | 14 µg
CCOc1ccc(N=C(OCc2cccc(Oc3ccccc3)c2)C(Cl)Cl)cc1 [Compound 138] | > 0.05% | 0.015% | 0.08% | 0.005% | > 0.01% | 19 µg
CC(C)(C)c1ccc(N=C(OCc2cccc(Oc3ccccc3)c2)C(Cl)Cl)cc1 [Compound 140] | – | > 0.1% | > 0.1% | < 0.1% | – | > 100 µg
COc1ccccc1N=C(OCc1cccc(Oc2ccccc2)c1)C(C)C [Compound 145] | > 0.05% | 0.05% | > 0.1% | 0.05% | – | > 100 µg
COc1ccc(N=C(OCc2cccc(Oc3ccccc3)c2)C(C)C)c(OC)c1 [Compound 146] | – | 0.025% | > 0.1% | 0.017% | – | 40 µg
CC(=O)c1ccc(N=C(OCc2cccc(Oc3ccccc3)c2)C(C)C)cc1 [Compound 147] | – | 0.0075% | > 0.1% | 0.01% | – | 10 µg
CC(C)C(=Nc1cccc(Cl)c1)OCc1cccc(Oc2ccc(F)cc2)c1 [Compound 194] | 0.0005% | 0.0017% | 0.04% | 0.0005% | > 0.01% | 10 µg

SMILES | LC50 LH [1] | LC50 TBW C [2] | LC50 TBW E [3] | LC50 CL [4] | LC50 MW [5] | LC50 HF [6]
CC(C)C(=Nc1ccc(F)c(Cl)c1)OCc1cccc(Oc2ccc(C#N)cc2)c1 [Compound 196] | > 0.05% | 0.001% | > 0.1% | 0.0006% | > 0.01% | 17 µg
CC(C)C(=Nc1cc(F)cc(F)c1)OCc1cccc(Oc2ccc(F)cc2)c1 [Compound 199] | – | 0.003% | > 0.1% | 0.0006% | > 0.01% | 8 µg
CC(C)C(=Nc1cccc(C(F)(F)F)c1)OCc1cccc(Oc2ccc(F)cc2)c1 [Compound 202] | 0.0003% | 0.0007% | > 0.1% | 0.00024% | > 0.01% | 18 µg
CC(C)(C)C(=Nc1ccc(F)c(Cl)c1)OCc1cccc(Oc2ccc(F)cc2)c1 [Compound 204] | – | 0.004% | > 0.1% | 0.0023% | > 0.01% | > 100 µg
CC(C)C(=Nc1ccc(F)cc1F)OCc1cccc(Oc2ccc(F)cc2)c1 [Compound 209] | 0.001% | 0.005% | 0.1% | 0.0007% | > 0.01% | 17 µg
CCC(C)C(=Nc1ccc(F)c(Cl)c1)OCc1cccc(Oc2ccc(F)cc2)c1 (centres unmarked) [Compound 210] | – | 0.0015% | 0.045% | 0.00028% | > 0.01% | 35 µg
CC(C)C(=Nc1ccc2c(c1)OC(C)(C)O2)OCc1cccc(Oc2ccc(F)cc2)c1 [Compound 219] | – | 0.004% | 0.027% | 0.00025% | > 0.01% | 50 µg
CC(C)C(=Nc1cccc(C(F)(F)F)c1)OCc1ccc(F)c(Oc2ccc(Cl)cc2)c1 [Compound 266] | – | 0.0007% | 0.06% | 0.00016% | – | 10 µg
C=C(C)C(=Nc1ccc(C(F)(F)F)cc1)OCc1ccc(F)c(Oc2ccc(Cl)cc2)c1 [Compound 432] | – | < 0.1% | 0.032% | 0.0012% | > 0.01% | < 100 µg
CC(C)C(=Nc1ccc(F)c(Cl)c1)OCc1cccc(Cc2ccccc2)c1 [Compound 541] | > 0.05% | – | > 0.1% | 0.001% | > 0.01% | < 100 µg
CC(C)C(=Nc1ccc(OC(F)(F)F)cc1)OCc1cccc(Cc2ccccc2)c1 [Compound 542] | > 0.05% | – | > 0.1% | > 0.01% | > 0.01% | > 100 µg
CC(C)C(=Nc1ccc(C(F)(F)F)cc1)OCc1cccc(Cc2ccccc2)c1 [Compound 543] | < 0.05% | – | > 0.1% | 0.0008% | > 0.01% | < 100 µg
COCc1c(F)c(F)c(COC(=Nc2ccc(C(C)(C)C)cc2)C(C)C)c(F)c1F [Compound 544] | > 0.05% | – | > 0.1% | > 0.1% | > 0.01% | > 100 µg
Cc1cccc(N=C(OCc2cccc(Oc3ccc(Cl)cc3)n2)C(C)C)c1 [Compound 545] | > 0.05% | – | > 0.1% | > 0.1% | > 0.01% | < 100 µg
C#CCc1c(F)c(F)c(COC(=Nc2cccc(C(F)(F)F)c2)C(C)C)c(F)c1F [Compound 546] | < 0.05% | – | > 0.1% | 0.0001% | 0.0032% | < 100 µg
C#CCc1c(F)c(F)c(COC(=Nc2ccc3c(c2)OCO3)C(C)C)c(F)c1F [Compound 547] | < 0.05% | – | 0.05% | 0.0005% | > 0.01% | < 100 µg
CC(C)C(=Nc1ccc(F)c(Cl)c1)OCc1cccc(Oc2ccccn2)c1 [Compound 549] | > 0.05% | – | > 0.1% | > 0.1% | > 0.01% | < 100 µg
